Laboratory results taken from publication PMC6930223 (Scientific Reports, 2019).

What was measured:
HEK293-hERG1a/1b cells = assay: Cell proliferation assay (CellTiter 96 AQueous One), 72 h; assay type: cell-based, human
Description: Trypan blue exclusion test was carried out to determine the effect of transfection on HEK293-hERG1a/1b cell viability. Briefly, cell suspension was mixed with 0.4% (v/v) trypan blue solution in a ratio of 1:1 and the viability of the cells were analyzed using Countess® II FL automated cell counter (Invitrogen, USA). For cell proliferation assay, cells were first seeded at a density of 5000 cells/well onto two 96-well plates (T0 and T1) and were incubated at 37 °C for 24 h in a humidified incubator supplemented with 5% (v/v) CO2. Subsequently, cells in T0 plate were subjected to cell proliferation assay as described previously. Meanwhile, cells in T1 plate were cultured in reduced serum medium (0.5% v/v FBS) for 4 h and treated with various concentrations of mitragynine. After 72 h, cell proliferation was determined using CellTiter 96® AQueous One Solution Cell Proliferation Assay (Promega, USA) following manufacturer’s protocol. Cell proliferation results were expressed as percentage growth (PG)[65]. The response parameters GI50 (half maximal growth inhibitory concentration), TGI (total growth inhibition) and LC50 (half maximal lethal concentration) values were derived from a non-linear regression model (curvefit) based on dose response-inhibition curve and computed using GraphPad Prism® 5.01 (GraphPad Software, USA). The GI50, TGI and LC50 are interpolated values representing the concentrations at which the PG is +50, 0 and −50 respectively. Data are presented as mean PG for three independent experiments.

CYP1A2 = system: CYP1A2; set-up: method as in PMID 24174816, PMID 23274770; conditions: cited from earlier work
[1] = system: rapidly delayed rectifier potassium current (IKr) in hiPSC-CMs; set-up: method as in PMID 25535742; conditions: cited from earlier work
hERG1b mRNA = assay: RT-qPCR mRNA expression in HEK293-hERG1a/1b cells; assay type: cell-based, human; conditions: all concentrations, 24 h at 37 °C
Description: (§1) Briefly, total cellular RNA was isolated from treated cells using RNeasy® Plus Mini kit (Qiagen, Germany) following manufacturer’s instruction. The optimized RT-qPCR assay was performed using CFX96™ real-time PCR system (Bio-Rad Laboratories Inc., USA) with the following cycle parameters: 10 min at 50 °C for reverse transcription, 1 min at 95 °C for activation of Taq polymerase, followed by 40 cycles of 10 s at 95 °C for denaturation and 30 s at 53.9 °C for annealing and data acquisition. Specifically, the assay was performed using 100 ng of total RNA and iTaq™ Universal SYBR® Green One-Step Kit (Bio-Rad Laboratories Inc., USA) in 10 µl of reaction volume. A melt curve analysis was computed at the end of the qPCR cycles to determine the specificity of the primers. The results were analyzed using CFX Manager software version 3.1 (Bio-Rad Laboratories Inc., USA). The mRNA expressions of hERG1a/1b were presented as fold changes normalized to endogenous reference genes, ACTB and GAPDH, and relative to the control gene[69]–[71]. Each experiment was conducted in triplicate and data are presented as mean fold changes of three independent experiments.

hERG1a mRNA = assay: RT-qPCR mRNA expression in HEK293-hERG1a/1b cells; assay type: cell-based, human; conditions: all concentrations, 24 h at 37 °C
Description: as §1

[2] = system: GIRK (G protein-coupled inward rectifier potassium) channels; set-up: method as in PMID 27260674; conditions: heterologous expression systems; cited from earlier work
[3] = system: hERG1b protein (fg 95 kDa, cg 80 kDa); assay: Western blot protein expression in HEK293-hERG1a/1b cells; assay type: cell-based, human; conditions: all concentrations, 24 h
Description: (§2) Total protein was isolated using RIPA lysis buffer system (Santa Cruz Biotechnology, Inc., USA). Equal amounts of protein samples were loaded onto 7.5% (v/v) polyacrylamide gels and were subsequently transferred to Immobilon®-P PVDF membrane (Millipore, USA) using Trans-Blot® Turbo™ Blotting System (Bio-Rad Laboratories, USA). Blots were blocked with 3% (w/v) skim milk for 1 h and probed with optimized primary antibodies against hERG1a (1:5000), hERG1b (1:1250), Hsp70 (1:10, 000), Hsp90 (1:5000) and β-actin (1:5000) overnight at 4 °C. Finally, the blots were then incubated in horseradish peroxidase (HRP) conjugated secondary antibody (1:1000) for 2.5 h followed by Clarity™ Western ECL substrate (Bio-Rad Laboratories, USA). The antibodies used for Western blotting were rabbit hERG1a polyclonal antibody (Enzo Life Sciences, USA), rabbit hERG1b polyclonal antibody (Enzo Life Sciences, USA), rabbit Hsc70/Hsp70 polyclonal antibody (Enzo Life Sciences, USA), rabbit Hsp90 polyclonal antibody (Enzo Life Sciences, USA), rabbit β-actin antibody (Cell Signaling, USA) and anti-rabbit IgG HRP-linked antibody (Cell Signaling, USA). Chemiluminescence signal was detected using ChemiDoc™ XRS Imaging System (Bio-Rad Laboratories, USA). Band densities were scanned and quantified using Image Lab Software (Bio-Rad Laboratories, USA). The signal for each protein band was normalized to the reference protein, β-actin. Experiments were conducted in duplicate and represented as mean fold changes of three independent experiments.

[4] = system: hERG1a protein (fg 155 kDa, cg 135 kDa); assay: as above; assay type: cell-based, human; conditions: 24 h
Description: as §2

CYP2D6 = conditions: cited from earlier work
hERG1a = system: hERG1a; set-up: method as in PMID 27260674; conditions: read-out: IC50 in hERG1a-injected Xenopus oocytes; cited from earlier work
Hsp90 = assay: Western blot of endogenous chaperone expression in HEK-hERG1a/1b cells; assay type: cell-based, human; conditions: exposure for 24 h
Description: as §2, with “The signal for each protein band was normalized to the reference protein, β-actin. Experiments were conducted in duplicate and represented as mean fold changes of three independent experiments.” left out

Hsp70 = assay: as above; assay type: cell-based, human; conditions: exposure for 24 h
Description: as §2, with “The signal for each protein band was normalized to the reference protein, β-actin. Experiments were conducted in duplicate and represented as mean fold changes of three independent experiments.” left out

mitragynine gave a GI50 (HEK293-hERG1a/1b cells) of 30.2 µM, an LC50 (HEK293-hERG1a/1b cells) of 85.1 µM and a TGI (HEK293-hERG1a/1b cells) of 57.68 µM. For the same substance, the “effect on CYP1A2 (induction)” value (CYP1A2) was “inductive effect”, the “action potential duration at 50 and 90% repolarization (APD50 and APD90)” value ([1]; 10 µM, hiPSC-CMs) was “significantly prolonged” and the IC50 ([1]; read-out: IC50 of IKr suppression in hiPSC-CMs) was 910 nM. The “effect on mRNA expression of hERG1b” value (hERG1b mRNA) was “did not affect”, the “effect on mRNA expression of hERG1a” value (hERG1a mRNA) was “did not affect” and the “effect on GIRK channels” value [2] was “inhibit”. The cg-hERG1b protein expression [3] was “no significant changes”, the fg-hERG1b protein expression [3] was “no significant changes” and the “increase of cg-hERG1a expression” value ([4]; 10 µM, vs untreated control) was about 50%. The “reduction of fg-hERG1a expression” value ([4]; 10 µM, vs untreated control) was “approximately 22.3%”, the “expression of cg-hERG1a” value ([4]; 0.001–1 µM) was “unaffected” and the “protein expression of fg-hERG1a” value ([4]; 0.001–1 µM) was “no clear pattern”. For the same substance, the “effect on CYP2D6” value (CYP2D6) was “potent inhibitory activity”, the IC50 (hERG1a) was 1030 nM and the Hsp90 levels (Hsp90) was “neither Hsp70 nor Hsp90 levels were significantly altered”. For the same substance, the Hsp70 levels (Hsp70) was “neither Hsp70 nor Hsp90 levels were significantly altered”.
